Test results reported in patent US4826856A, “Calcium antagonistic dihydropyridine derivative” (Yason s.r.l., priority 1985, dated 1989).
Where two headings read alike, the source gives them in different places.

Key:
volunteers = experiment: Clinical tolerance of oral treatment in volunteers; format: in vivo, human
Procedure: The study was performed in 4 male subjects aged 26-43 years.
Each volunteer received one capsule of 20 mg of YS 201 with a glass of water.
The same four volunteers, after the first administration were treated with increasing doses of YS 201: 30-40-50 mg.

Sprague-Dawley rats [1] = experiment: Ventricular arrhythmias after re-circulation; format: in vivo, rat
Procedure: (§1) Ventricular arrhythmias after coronary artery ligation in the acute phase or during the period of re-circulation
(§2) Sprague-Dawley rats were subjected to ligation of the left coronary artery according to the method of Clark et al. in J. Pharmacol. Methods 3, 357-368, 1980. The drugs were administered by gastric tube 30 minutes before the ligation. By means of a continuous electrocardiographic recording, the ventricular arrhythmias such as ectopic beats (EB), ventricular tachycardia (VT), ventricular fibrillation (VF) for 30 minutes after ligation, were recorded.

[2] = Acute toxicity in the rat; conditions: in vivo
From the text: The acute toxicity of YS 201 given by intraveous route, similar in the males and in the females in the rat as well as in the mouse, is as follows:
The acute toxicity of YS 201 given by oral route, similar in the males and in the females in the rat as well as in the mouse, is as follows: […]

[3] = Pharmacokinetics and bioavailability in dogs; format: in vivo; conditions: dog; for half-life: hydrochloride
Procedure: YS 201 hydrochloride was intravenously and orally administered to dogs at 1 and 10 mg/kg respectively.

normotensive rats = experiment: Effect on blood pressure in normotensive rats (intraduodenal); format: in vivo, rat; conditions: 15 mg/kg intraduodenal; for HR (heart rate): in beats/min (unit assumed)
Procedure: Comparative effect of YS 201 on 3 month old rats and 6 month old SHR-SP
YS 201 was given by intraduodenal route at 15 mg/kg in normotensive rats.

Sprague-Dawley rats [4] = experiment: Ventricular arrhythmias during coronary artery ligation period; format: in vivo, rat; set-up: EBs, mean value of indices + SEM / VT, mean value of indices + SEM / VF, mean value of indices + SEM: scale not given here
Procedure: as §1, §2

[5] = Bioavailability after oral administration in normal volunteers; format: in vivo, human; set-up: AUC: concentration or dose not given beside the values; conditions: for Tmax / Cmax / half-life / AUC: human, plasma, po; for Tmax / Cmax: oral 20 mg
Procedure: The study was performed in 4 male subjects aged 26-43 years. Pharmacokinetic studies were performed both after acute and repeated administrations. Acute administration […] Further venous blood samples were withdrawn 15-30 minutes and 1.0-1.5-2.0-4.0-6.0-8.0 hours after treatment. Multiple-doses administration […] Blood samples were withdrawn 2-4-8-12 hours after the last treatment.

CCOC(=O)C1=C(C)NC(C)=C(C(=O)OCCN2CCCCC2)C1c1cccc([N+](=O)[O-])c1 (stereo not drawn) [YS 201, ethyl-(β-piperidinoethyl)-2,6-dimethyl-4-(3-nitrophenyl)-1,4-dihydropyridine-3,5-dicarboxylate]
normal respiratory function and other vital parameters (volunteers; oral): not affected
pathological modification of the arterial pressure (volunteers; oral): not observed
tolerance of oral treatment (volunteers; oral): well tolerated
sinus bradycardia (volunteers; oral, two subjects (n. 3, 4)): moderate but definite sinus bradycardia
atrio-ventricular conduction time (PR interval) (volunteers; subject n. 1, delayed from 0.14 sec.): 0.16 s
atrio-ventricular conduction time (PR interval) (volunteers; subject n. 2, delayed from 0.16 sec.): 0.18 s
atrio-ventricular conduction time (PR interval), change (volunteers; two subjects (n. 1, 2)): slightly prolonged
Death rate % (Sprague-Dawley rats [1]; 7.5 mg/kg p.o.): 10%
EBs, mean value of indices + SEM (Sprague-Dawley rats [1]; 7.5 mg/kg p.o.): 42.8 ± 10.08
VF % (Sprague-Dawley rats [1]; 7.5 mg/kg p.o.): 60%
VF, mean value of indices + SEM (Sprague-Dawley rats [1]; 7.5 mg/kg p.o.): 1.3 ± 0.52
VT, mean value of indices + SEM (Sprague-Dawley rats [1]; 7.5 mg/kg p.o.): 2.2 ± 1.70
Death rate % (Sprague-Dawley rats [1]; 15 mg/kg p.o.): 0%
EBs, mean value of indices + SEM (Sprague-Dawley rats [1]; 15 mg/kg p.o.): 27.20 ± 5.87
VF % (Sprague-Dawley rats [1]; 15 mg/kg p.o.): 50%
VF, mean value of indices + SEM (Sprague-Dawley rats [1]; 15 mg/kg p.o.): 0.6 ± 0.33
VT, mean value of indices + SEM (Sprague-Dawley rats [1]; 15 mg/kg p.o.): 1.2 ± 0.39
LD50 ([2]; iv): 12.5 mg/kg
LD50 ([2]; po): 402 mg/kg
decline in concentration ([3]; 1 mg/kg intravenous): typically biexponential
bioavailability ([3]; in vivo, 10 mg/kg, oral, read-out: average apparent bioavailable fraction): 19.4%
half-life ([3]; in vivo, 1 mg/kg intravenous, read-out: mean half-life of elimination): 1.47 h
half-life ([3]; in vivo, 10 mg/kg oral, read-out: mean apparent half-life of elimination): 2.47 h
AUC ([3]; in vivo, oral, 10 mg/kg, read-out: average AUC (converted)): 1080 ng·h/mL
Cmax ([3]; in vivo, oral, 10 mg/kg, read-out: maximum concentration (Cmax)): 284 ng/mL
DBP (diastolic blood pressure) (normotensive rats; 1 min): 13.0 ± 0.74
MBP (mean blood pressure) (normotensive rats; 1 min): 14.8 ± 0.64
SBP (systolic blood pressure) (normotensive rats; 1 min): 18.4 ± 0.48
HR (heart rate) (normotensive rats; 1 min): 556 ± 9.8
DBP (diastolic blood pressure) (normotensive rats; 2 min): 12.0 ± 0.35
MBP (mean blood pressure) (normotensive rats; 2 min): 13.9 ± 0.28
SBP (systolic blood pressure) (normotensive rats; 2 min): 17.8 ± 0.26
HR (heart rate) (normotensive rats; 2 min): 556 ± 7.5
DBP (diastolic blood pressure) (normotensive rats; 5 min): 10.4 ± 0.33
MBP (mean blood pressure) (normotensive rats; 5 min): 12.7 ± 0.19
SBP (systolic blood pressure) (normotensive rats; 5 min): 17.2 ± 0.26
HR (heart rate) (normotensive rats; 5 min): 564 ± 7.5
reduction of diastolic blood pressure (DBP) (normotensive rats; 5 min after administration): 3.1 KPA
DBP (diastolic blood pressure) (normotensive rats; 10 min): 9.4 ± 0.19
MBP (mean blood pressure) (normotensive rats; 10 min): 11.6 ± 0.15
SBP (systolic blood pressure) (normotensive rats; 10 min): 15.9 ± 0.19
HR (heart rate) (normotensive rats; 10 min): 536 ± 7.5
DBP (diastolic blood pressure) (normotensive rats; 15 min): 9.8 ± 0.34
MBP (mean blood pressure) (normotensive rats; 15 min): 11.7 ± 0.28
SBP (systolic blood pressure) (normotensive rats; 15 min): 15.6 ± 0.29
HR (heart rate) (normotensive rats; 15 min): 524 ± 11.7
DBP (diastolic blood pressure) (normotensive rats; 30 min): 11.3 ± 0.62
MBP (mean blood pressure) (normotensive rats; 30 min): 12.9 ± 0.51
SBP (systolic blood pressure) (normotensive rats; 30 min): 16.0 ± 0.35
HR (heart rate) (normotensive rats; 30 min): 496 ± 22.3
DBP (diastolic blood pressure) (normotensive rats; 60 min): 12.4 ± 0.40
MBP (mean blood pressure) (normotensive rats; 60 min): 14.0 ± 0.35
SBP (systolic blood pressure) (normotensive rats; 60 min): 17.3 ± 0.26
HR (heart rate) (normotensive rats; 60 min): 428 ± 24.2
DBP (diastolic blood pressure) (normotensive rats; 120 min): 13.7 ± 0.87
MBP (mean blood pressure) (normotensive rats; 120 min): 15.3 ± 0.90
SBP (systolic blood pressure) (normotensive rats; 120 min): 18.5 ± 1.06
DBP (diastolic blood pressure) (normotensive rats; TO (baseline)): 13.5 ± 0.55
MBP (mean blood pressure) (normotensive rats; TO (baseline)): 13.2 ± 0.50
SBP (systolic blood pressure) (normotensive rats; TO (baseline)): 18.5 ± 0.47
HR (heart rate) (normotensive rats; TO (baseline)): 432 ± 28.7
Death rate % (Sprague-Dawley rats [4]; 0.75 mg/kg p.o.): 20%
EBs, mean value of indices + SEM (Sprague-Dawley rats [4]; 0.75 mg/kg p.o.): 42.1 ± 9.70
VF % (Sprague-Dawley rats [4]; 0.75 mg/kg p.o.): 60%
VF, mean value of indices + SEM (Sprague-Dawley rats [4]; 0.75 mg/kg p.o.): 3.8 ± 1.77
VT, mean value of indices + SEM (Sprague-Dawley rats [4]; 0.75 mg/kg p.o.): 1.3 ± 0.68
Death rate % (Sprague-Dawley rats [4]; 1.5 mg/kg p.o.): 0%
EBs, mean value of indices + SEM (Sprague-Dawley rats [4]; 1.5 mg/kg p.o.): 45.7 ± 6.18
VF % (Sprague-Dawley rats [4]; 1.5 mg/kg p.o.): 20%
VF, mean value of indices + SEM (Sprague-Dawley rats [4]; 1.5 mg/kg p.o.): 0.5 ± 0.49
VT, mean value of indices + SEM (Sprague-Dawley rats [4]; 1.5 mg/kg p.o.): 1.9 ± 0.32
Death rate % (Sprague-Dawley rats [4]; 3.0 mg/kg p.o.): 80%
EBs, mean value of indices + SEM (Sprague-Dawley rats [4]; 3.0 mg/kg p.o.): 36.0 ± 9.11
VF % (Sprague-Dawley rats [4]; 3.0 mg/kg p.o.): 100%
VF, mean value of indices + SEM (Sprague-Dawley rats [4]; 3.0 mg/kg p.o.): 4.8 ± 1.41
VT, mean value of indices + SEM (Sprague-Dawley rats [4]; 3.0 mg/kg p.o.): 1.6 ± 0.77
reduction of the index attributed to EBs and VT (Sprague-Dawley rats [4]; whatever the dosage): ~2 fold
decline of plasma profile (compartment analysis) ([5]; acute and repeated administration): declines in one phase
unchanged drug in plasma ([5]; after six hours, acute): still present in the plasma
Tmax ([5]; 20 mg, acute study, read-out: average T max (converted)): 1.5 h
Cmax ([5]; 20 mg, acute study, ±2.65 S.E., read-out: mean peak plasma level): 57.2 ng/mL
half-life ([5]; 20 mg, after acute administration, mean of 4 volunteers, read-out: T1/2 el. (converted)): 1.88 h
half-life ([5]; 20 mg, after acute administration, volunteer 1, read-out: T1/2 el. (converted)): 1.99 h
half-life ([5]; 20 mg, after acute administration, volunteer 2, read-out: T1/2 el. (converted)): 1.05 h
half-life ([5]; 20 mg, after acute administration, volunteer 3, read-out: T1/2 el. (converted)): 1.8 h
half-life ([5]; 20 mg, after acute administration, volunteer 4, read-out: T1/2 el. (converted)): 2.66 h
half-life ([5]; 20 mg, after acute administration, ±0.65 S.D., read-out: mean T1/2 el. / terminal half life (converted)): 1.8 h
Cmax ([5]; 20 mg, mean of 4 volunteers, read-out: C max): 64.8 ng/mL
Tmax ([5]; 20 mg, mean of 4 volunteers, read-out: T max): 1.5 h
Cmax ([5]; 20 mg, volunteer 1, read-out: C max): 56 ng/mL
Tmax ([5]; 20 mg, volunteer 1, read-out: T max): 1.5 h
Cmax ([5]; 20 mg, volunteer 2, read-out: C max): 55 ng/mL
Tmax ([5]; 20 mg, volunteer 2, read-out: T max): 1.5 h
Cmax ([5]; 20 mg, volunteer 3, read-out: C max): 65 ng/mL
Tmax ([5]; 20 mg, volunteer 3, read-out: T max): 2 h
Cmax ([5]; 20 mg, volunteer 4, read-out: C max): 83 ng/mL
Tmax ([5]; 20 mg, volunteer 4, read-out: T max): 1 h
half-life ([5]; after multiple-doses administration, mean of 4 volunteers, read-out: T1/2 el. (converted)): 4.29 h
half-life ([5]; after multiple-doses administration, volunteer 1, read-out: T1/2 el. (converted)): 4.11 h
half-life ([5]; after multiple-doses administration, volunteer 2, read-out: T1/2 el. (converted)): 4.44 h
half-life ([5]; after multiple-doses administration, volunteer 3, read-out: T1/2 el. (converted)): 4.12 h
half-life ([5]; after multiple-doses administration, volunteer 4, read-out: T1/2 el. (converted)): 4.49 h
half-life ([5]; after repeated administration, read-out: mean terminal half life (converted)): 4.29 h
AUC ([5]; mean of 4 volunteers): 252 ng·h/mL
AUC ([5]; volunteer 1): 219 ng·h/mL
AUC ([5]; volunteer 2): 181 ng·h/mL
AUC ([5]; volunteer 3): 269 ng·h/mL
AUC ([5]; volunteer 4): 388 ng·h/mL
plasma level relative to peak ([5]; multiple dose, four hours after administration): reduced to the half
plasma level of unchanged drug vs acute treatment at same time ([5]; multiple dose, two hours after last treatment): three times upper
unchanged drug in plasma ([5]; twelve hours after treatment, multiple dose): still present in the plasma
